In patent EP4640686A1, “DEGRADER FOR DEGRADING BRD PROTEIN AND PHARMACEUTICAL COMPOSITION CONTAINING SAME” (Innocure Therapeutics, Inc., priority 2022, dated 2024):
Where two headings read alike, the source gives them in different places.

Experiments:
Assay type in all cases: cell-based
BRD4 = BRD4 (Homo sapiens, UniProt O60885); assay: BRD4 protein degradation by western blotting in RPMI2650 cells (24 h treatment); design: To evaluate the resolution of PROTAC for BRD4 expressed in cells; endogenous in cells; host or cells: RPMI2650; settings: RPM12650, read-out: BRD4 (DC50)
Procedure: (§1) The synthesized compounds were prepared with a 10 mM or 50 mM raw material solution dissolved in DMSO [dimethyl sulfoxide], and were diluted sequentially and treated. [RPMI2650] and [SNU2972] were cultivated under specific conditions.
(§2) To evaluate the resolution of PROTAC for BRD4 expressed in cells, cells were dispensed in a concentration of 5 X 10^5 cells/well in a 6-well plate, and the sample was treated for 24 hours. […] Protein expression was normalized based on the expression value of β or GAPDH, and protein expression in each sample was measured as % based on 100% of samples treated with 0.1% DMSO vehicle. Protein expression was quantified using Image J program. Change in protein expression volume by compound treatment (DC50: concentration of compounds where 50% protein expression inhibition is achieved) was calculated using the GraphicPad Prism 8.0 software.

RPMI2650 = assay: Cancer cell antiproliferative activity / cell viability in RPMI2650 cells (72 h treatment)
Procedure: The human breast cancer cell line [MDA-MB-231] was cultured in RPMI medium with the addition of 10% fetal bovine serum, penicillin [100U/ml], and streptomycin [[…]]. The synthesized compounds were prepared with a 10 mM or 50 mM raw material solution dissolved in DMSO [dimethyl sulfoxide], and were diluted sequentially and treated. [RPMI2650] and [SNU2972] were cultivated under specific conditions.
To observe cell growth inhibition, cells were dispensed in a concentration of 5,000 cells/well in a 96-well plate, and samples prepared at various concentrations were treated for 72 hours. The IC50 value (the concentration of the compound achieving 50% cytostaticism) is the average value of the results of three independent measurements.

BRD4-NUT = molecular target: T1, BRD4-NUT (Homo sapiens, UniProt O60885+Q86Y26); assay: BRD4-NUT protein degradation by western blotting in RPMI2650 cells (24 h treatment); settings: RPM12650, read-out: BRD4-NUT (DC50)
T1 construct: endogenous in cells; host or cells: RPMI2650
Procedure: as §1, §2

[1] = Homo sapiens, RPMI-2650, RPM12650, read-out: Cell Viatility (IC50)
[2] = RPM12650, read-out: Cell Viatility (IC50)
[3] = Homo sapiens, RPMI-2650, 72 h, RPM12650, read-out: Cell Viatility (IC50)

Compound	DC50 (BRD4) [µM]	IC50 (RPMI2650; [1]) [µM]	DC50 (BRD4-NUT) [µM]	IC50 (RPMI2650; [2]) [µM]	IC50 (RPMI2650; [3]) [µM]
CC[C@@H]1c2nnc(C)n2-c2cnc(Nc3ccc(C(=O)NCCNc4cccc5cnn(C6CCC(=O)NC6=O)c(=O)c45)cc3OC)nc2N1CC1CCCCC1 (stereo partly drawn) [ICT-0001558, 4-(((R)-5-(cyclohexylmethyl)-4-ethyl-1-methyl-4,5-dihydro-[1,2,4]triazolo[4,3-f]pteridine-7-yl)amino)N-(2-((3-(2,6-dioxopiperidin-3-yl)4-oxo-3,4-dihydroptalazine-5-yl)amino)ethyl)-3-methoxybenzamide]	< 0.1	> 1	< 0.1	–	–
CCC1c2nnc(C)n2-c2cnc(Nc3ccc(C(=O)NC4CCN(CCN5CCN(c6ccc7c(=O)n(C8CCC(=O)NC8=O)nc(C)c7c6)CC5)CC4)cc3OC)nc2N1CC1CCCCC1 [ICT-0001560, 4-{[(4S)-5-(cyclohexylmethyl)-4-ethyl-1-methyl-4H,5H-[1,2,4]triazolo[4,3-f]pteridine-7-yl]amino}-N-[1-(2-{4-[2-(2,6-dioxopiperidine-3-yl)-4-methyl-1-oxo-1,2-dihydroptalazine-6-yl]piperazine-1-yl}ethyl)piperidine-4-yl]-3-methoxybenzamide]	< 0.1	> 1	< 0.1	–	–
CCC1c2nnc(C)n2-c2cnc(Nc3ccc(C(=O)NC4CCN(CCN5CCN(c6ccc(NC7CCC(=O)NC7=O)cc6F)CC5)CC4)cc3OC)nc2N1CC1CCCCC1 [ICT-0001561, 4-{[(4S)-5-(cyclohexylmethyl)-4-ethyl-1-methyl-4H,5H-[1,2,4]triazolo[4,3-f]pteridine-7-yl]amino}-N-{1-[2-(4-{4-[(2,6-dioxopiperidin-3-yl)amino]-2-fluorophenyl}piperazine-1-il)ethyl]piperidine-4-yl}-3-methoxybenzamide]	< 0.1	> 1	< 0.1	–	–
CC[C@H]1c2nnc(C)n2-c2cnc(Nc3ccc(C(=O)NC4CCN(CCC5CCN(c6ccc(NC7CCC(=O)NC7=O)cc6F)CC5)CC4)cc3OC)nc2N1CC1CCCCC1 (stereo partly drawn) [ICT-0001562, 4-{[(4S)-5-(cyclohexylmethyl)-4-ethyl-1-methyl-4H,5H-[1,2,4]triazolo[4,3-f]pteridine-7-yl]amino}-N-{1-[2-(1-{4-[(2,6-dioxopiperidin-3-yl)amino]-2-fluorophenyl}piperidine-4-yl)ethyl]piperidine-4-yl}-3-methoxybenzamide]	> 1	–	> 1	0.1 to 1	–
CC[C@@H]1c2nnc(C)n2-c2cnc(Nc3ccc(C(=O)NC4CCN(C(=O)CN5CCN(c6ccc7c(=O)n(C8CCC(=O)NC8=O)nc(C)c7c6)CC5)CC4)cc3OC)nc2N1CC1CCCCC1 (stereo partly drawn) [ICT-0001563]	< 0.1	> 1	< 0.1	–	–
CC[C@H]1c2nnc(C)n2-c2cnc(Nc3ccc(C(=O)NC4CCN(CCC5CCN(c6ccc(NC7CCC(=O)NC7=O)cc6F)CC5)CC4)cc3OC)nc2N1CC1CCCCC1 (stereo partly drawn) [ICT-0001564, 4-{[(4S)-5-(cyclohexylmethyl)-4-ethyl-1-methyl-4H,5H-[1,2,4]triazolo[4,3-f]pteridine-7-yl]amino}-N-{1-[2-(1-{4-[(2,6-dioxopiperidin-3-yl)amino]-2-fluorophenyl}piperidine-4-yl)ethyl]piperidine-4-yl}-3-methoxybenzamide]	< 0.1	–	> 1	> 1	–
CC[C@@H]1c2nnc(C)n2-c2cnc(Nc3ccc(C(=O)NC4CCN(c5ccc(NC6CCC(=O)NC6=O)cc5F)CC4)cc3OC)nc2N1CC1CCCCC1 (stereo partly drawn) [ICT-0001566, 4-{[(4R)-5-(cyclohexylmethyl)-4-ethyl-1-methyl-4H,5H-[1,2,4]triazolo[4,3-f]pteridine-7-yl]amino}-N-(1-{4-[(2,6-dioxopiperidine-3-yl)amino]-2-fluorophenyl}piperidine-4-yl)-3-methoxybenzamide]	< 0.1	–	< 0.1	–	> 1
CC[C@@H]1c2nnc(C)n2-c2cnc(Nc3ccc(C(=O)NC4CCN(c5ccc6c(=O)n(C7CCC(=O)NC7=O)nc(C)c6c5)CC4)cc3OC)nc2N1CC1CCCCC1 (stereo partly drawn) [ICT-0001567, 4-{[(4R)-5-(cyclohexylmethyl)-4-ethyl-1-methyl-4H,5H-[1,2,4]triazolo[4,3-f]pteridine-7-yl]amino}-N-{1-[2-(2,6-dioxopiperidine-3-yl)-4-methyl-1-oxo-1,2-dihydroptalazine-6-yl]piperidine-4-yl}-3-methoxybenzamide]	> 1	> 1	> 1	–	–
CC[C@@H]1c2nnc(C)n2-c2cnc(Nc3ccc(C(=O)NC4CCN(CCCN5CCN(c6ccc7c(=O)n(C8CCC(=O)NC8=O)nc(C)c7c6)CC5)CC4)cc3OC)nc2N1CC1CCCCC1 (stereo partly drawn) [ICT-0001568, 4-{[(4R)-5-(cyclohexylmethyl)-4-ethyl-1-methyl-4H,5H-[1,2,4]triazolo[4,3-f]phteridine-7-yl]amino}-N-[1-(3-{4-[2-(2,6-dioxopiperidin-3-yl)-4-methyl-1-oxo-1,2-dihydroptalazine-6-yl}piperazine-1-il}piperidine-4-yl]piperidine-4-yl]-3-methoxybenzamide]	< 0.1	> 1	> 1	–	–
CC[C@@H]1c2nnc(C)n2-c2cnc(Nc3ccc(C(=O)NC4CCN(Cc5ccc(NC6CCC(=O)NC6=O)cc5)CC4)cc3OC)nc2N1CC1CCCCC1 (stereo partly drawn) [ICT-0001569, 4-{[(4R)-5-(cyclohexylmethyl)-4-ethyl-1-methyl-4H,5H-[1,2,4]triazolo[4,3-f]pteridine-7-yl]amino}-N-[1-({4-[(2,6-dioxopiperidin-3-yl)amino]phenyl}methyl)piperidine-4-yl]-3-methoxybenzamide]	> 1	–	> 1	–	> 1
CC[C@@H]1c2nnc(C)n2-c2cnc(Nc3ccc(C(=O)NC4CCN(CCOCCOc5ccc(NC6CCC(=O)NC6=O)cc5F)CC4)cc3OC)nc2N1CC1CCCCC1 (stereo partly drawn) [ICT-0001570, 4-{[(4R)-5-(cyclohexylmethyl)-4-ethyl-1-methyl-4H,5H-[1,2,4]triazolo[4,3-f]pteridine-7-yl]amino}-N-{1-[2-(2-{4-[(2,6-dioxopiperidin-3-yl)amino]-2-fluorophenoxy}ethoxy)ethyl]piperidine-4-yl}-3-methoxybenzamide]	> 1	–	> 1	–	> 1
CC[C@@H]1c2nnc(C)n2-c2cnc(Nc3ccc(C(=O)NC4CCN(C(=O)CCCCN5CCN(c6ccc(NC7CCC(=O)NC7=O)cc6F)CC5)CC4)cc3OC)nc2N1CC1CCCCC1 (stereo partly drawn) [ICT-0001571, 4-{[(4R)-5-(cyclohexylmethyl)-4-ethyl-1-methyl-4H,5H-[1,2,4]triazolo[4,3-f]pteridine-7-yl]amino}-N-{1-[5-(4-{4-[(2,6-dioxopiperidin-3-yl)amino]-2-fluorophenyl}piperazine-1-yl)pentanoyl]piperidine-4-yl}-3-methoxybenzamide]	> 1	–	> 1	–	> 1
CC[C@@H]1c2nnc(C)n2-c2cnc(Nc3ccc(C(=O)NC4CCN(CCCN5CCN(c6ccc(NC7CCC(=O)NC7=O)cc6F)CC5)CC4)cc3OC)nc2N1CC1CCCCC1 (stereo partly drawn) [ICT-0001572, 4-{[(4R)-5-(cyclohexylmethyl)-4-ethyl-1-methyl-4H,5H-[1,2,4]triazolo[4,3-f]pteridine-7-yl]amino}-N-{1-[3-(4-{4-[(2,6-dioxopiperidin-3-yl)amino]-2-fluorophenyl}piperazine-1-yl)propyl]piperidine-4-yl}-3-methoxybenzamide]	> 1	–	> 1	–	> 1
CC[C@@H]1c2nnc(C)n2-c2cnc(Nc3ccc(C(=O)N4CCN(c5ccc6c(=O)n(C7CCC(=O)NC7=O)nc(C)c6c5)CC4)cc3OC)nc2N1CC1CCCCC1 (stereo partly drawn) [ICT-0001576, 3-{6-[4-(4-{[(4R)-5-(cyclohexylmethyl)-4-ethyl-1-methyl-4H,5H-[1,2,4]triazolo[4,3-f]pteridine-7-yl]amino}-3-methoxybenzoyl)piperazine-1-yl]-4-methyl-1-oxo-1,2-dihydroptalazine-2-yl}piperidine-2,6-dione]	< 0.1	> 1	< 0.1	–	–
CC[C@@H]1c2nnc(C)n2-c2cnc(Nc3ccc(C(=O)N4CCN(c5ccc6c(=O)n(C7CCC(=O)NC7=O)ncc6c5)CC4)cc3OC)nc2N1CC1CCCCC1 (stereo partly drawn) [ICT-0001577]	> 1	> 1	> 1	–	–
CC[C@@H]1c2nnc(C)n2-c2cnc(Nc3ccc(C(=O)NC4CCN(C(=O)CCN5CCN(c6ccc(NC7CCC(=O)NC7=O)cc6F)CC5)CC4)cc3OC)nc2N1CC1CCCCC1 (stereo partly drawn) [ICT-0001578, 4-{[(4R)-5-(cyclohexylmethyl)-4-ethyl-1-methyl-4H,5H-[1,2,4]triazolo[4,3-f]pteridine-7-yl]amino}-N-{1-[3-(4-{4-[(2,6-dioxopiperidin-3-yl)amino]-2-fluorophenyl}piperazine-1-yl)propanoyl]piperidine-4-yl}-3-methoxybenzamide]	> 1	–	> 1	–	0.1 to 1
